The source of these data is ChEMBL document CHEMBL4619771, “Terpenoids from the Liverwort Plagiochila fruticosa and Their Antivirulence Activity against Candida albicans” (2020).

The source made the active and inactive calls. The rule behind the calls is not given here.

Test [1] deals with Candida albicans. The test can be described thus: Antifungal activity against wild-type Candida albicans SC5314 assessed as reduction in filamentous growth. The format is functional, organism-based.
Test [2] concerns Candida albicans. In words: Antifungal activity against Candida albicans DSY654 assessed as inhibition of massive filamentation at 4 to 32 ug/ml. The format is functional, organism-based.
For test [3], the system named is Candida albicans. In words: Upregulation of NRG1 gene expression in Candida albicans DSY654 at 4 ug/ml after 1.5 to 6 hrs by RT-qPCR assay relative to control. The format is functional.
Test [4] relates to Candida albicans. The test can be described thus: Antifungal activity against Candida albicans DSY654 assessed as inhibition of biofilm formation incubated for 24 hrs by XTT assay. The format is functional, organism-based.
Test [5] relates to Candida albicans. In words: Downregulation of CDC35 gene expression in Candida albicans DSY654 at 4 ug/ml after 1.5 to 6 hrs by RT-qPCR assay. The format is functional, organism-based. A general note: Quantitative PCR measures a nucleic acid by following its amplification.
For test [6], the system named is Candida albicans. In words: Downregulation of UME6 gene expression in Candida albicans DSY654 at 4 ug/ml after 1.5 to 6 hrs by RT-qPCR assay. The format is functional, organism-based.
Test [7] concerns Candida albicans. In words: Downregulation of HWP1 gene expression in Candida albicans DSY654 at 4 ug/ml after 1.5 to 6 hrs by RT-qPCR assay. The format is functional, organism-based.
In test [8] the test system is Candida albicans. The test can be described thus: Downregulation of RAS1 gene expression in Candida albicans DSY654 at 4 ug/ml after 1.5 to 6 hrs by RT-qPCR assay. The format is functional, organism-based.
Test [9] deals with Candida albicans. The test can be described thus: Antifungal activity against Candida albicans DSY654 assessed as reduction in number of adherent fungal cells on human A549 cells after 90 mins by calcofluor White staining based fluorescent microscopy. The format is functional, organism-based.
Test [10] concerns Candida albicans. The test can be described thus: Antifungal activity against Candida albicans DSY654 assessed as reduction in filamentous growth. The format is functional, organism-based.
Test [11] deals with Candida albicans. In words: Antifungal activity against Candida albicans DSY654 assessed as inhibition of yeast to hyphal morphological transition measured at 6 hrs by fluorescent microscopy. The format is functional, organism-based.
Test [12] concerns Candida albicans. In words: Upregulation of PDE2 gene expression in Candida albicans DSY654 at 4 ug/ml after 1.5 to 6 hrs by RT-qPCR assay. The format is functional, organism-based.
Test [13] deals with Candida albicans. The test can be described thus: Antifungal activity against Candida albicans DSY654 assessed as inhibition of biofilm formation incubated for 24 hrs by fluorescent microscopy. The format is functional, organism-based.
The subject of test [14] is Candida albicans. In words: Downregulation of ECE1 gene expression in Candida albicans DSY654 at 4 ug/ml after 1.5 to 6 hrs by RT-qPCR assay. The format is functional, organism-based.
Test [15] relates to Candida albicans. The test can be described thus: Downregulation of ALS3 gene expression in Candida albicans DSY654 at 4 ug/ml after 1.5 to 6 hrs by RT-qPCR assay. The format is functional, organism-based.

On to `CC1=C2C[C@]3(C)CC(=O)[C@@](O)(C(C)C)[C@H]3CC[C@H](C)[C@]2(O)CC1=O`, for which the outcome in the test on Candida albicans [1] was inactive.

In the case of `CC(=O)O[C@H]1OC=C(CO)[C@H]2[C@@H]1[C@@]1(CC[C@H]3[C@@H]2[C@@]3(CO)COC(=O)/C=C/c2ccccc2)CO1`, the result in the test with Candida albicans [1] was inactive.

With `C=C1CC[C@@H](O)[C@]2(C)CC[C@H]3[C@@H]([C@@H]12)[C@@H](C(C)(C)O)CC[C@@H]3C`, the result with Candida albicans [1] was inactive.

With `CC(C)[C@]1(O)C(=O)C[C@@]2(C)CC3=C([C@H](C)CC[C@@H]21)[C@H](O)CC3=O`, in the test on Candida albicans [1], the result was inactive.

As for `CC(=O)O[C@H]1/C(C)=C/[C@@H]2[C@H](C[C@@H](OC(=O)CCc3ccccc3)/C(CO)=C/[C@H]1O)[C@]2(C)CO`, in the test on Candida albicans [1], the outcome was inactive.

As to `C=C1CC[C@H]2[C@@H](/C=C(\C)[C@H](OC(C)=O)[C@H](OC(C)=O)[C@@H]1OC(C)=O)C2(C)C`, the outcome with Candida albicans [2], in the test on Candida albicans [5], in the test with Candida albicans [6], with Candida albicans [7], in the test on Candida albicans [8] and with Candida albicans [10] was Active. Moreover, the outcome in the test on Candida albicans [12], in the test on Candida albicans [14] and in the test on Candida albicans [15] was Active. In the test on Candida albicans [1], the result was inactive. In the test on Candida albicans [3], the “fold change (FC)” value is greater than 10. Besides, the Activity result in the test on Candida albicans [4], in the test with Candida albicans [9], with Candida albicans [11] and in the test on Candida albicans [13] was “Dose-dependent effect” in each case.

For `CC(C)[C@@]1(O)C(=O)C[C@]2(C)C[C@]3(O)C(=CC(=O)[C@H]3C)[C@@H](C)CC[C@H]21`, the outcome in the test on Candida albicans [1] was inactive.

On to `C=C1[C@@H](O)[C@@H]2[C@H](C[C@@H](O)/C(COC(=O)CCc3ccccc3)=C/[C@@H](O)[C@H]1OC(C)=O)[C@]2(C)CO`, for which the outcome in the test on Candida albicans [1] was inactive.

Consider `CC1=C2C[C@@]3(C)CC(=O)[C@](O)(C(C)C)[C@@H]3CC[C@H](C)[C@@]2(O)CC1=O`, for which the result in the test on Candida albicans [1] was inactive.

For `C=C1[C@@H](O)[C@@H]2[C@H](C[C@@H](OC(=O)CCc3ccccc3)/C(CO)=C/[C@@H](OC(C)=O)[C@H]1O)[C@]2(C)CO`, the outcome in the test with Candida albicans [1] was inactive.

Consider `C=C1CC[C@H]2[C@@H](/C=C(\C)CC[C@H]1O)[C@@H](C(C)(C)O)CC[C@@H]2C`, for which the result with Candida albicans [1] was inactive. The outcome with Candida albicans [10] was Active.

Turning to `CC(=O)O[C@@H]1/C=C(\CO)[C@H](OC(=O)CCc2ccccc2)C[C@H]2[C@@H](/C=C(\C)[C@@H]1O)[C@@]2(C)CO`, in the test on Candida albicans [1], the result was inactive.

Regarding `CC(=O)OC/C1=C\[C@@H](O)[C@@H](OC(C)=O)/C(C)=C/[C@@H]2[C@H](C[C@H]1OC(=O)CCc1ccccc1)[C@]2(C)CO`, the result in the test on Candida albicans [1] was inactive.

With `CC(C)[C@@]1(O)C(=O)C[C@]2(C)CC3=C(C(=O)C[C@@]3(C)O)[C@@H](C)CC[C@H]21`, in the test with Candida albicans [1], the result was inactive.
